The source of these data is paper doi:10.1101/2025.03.04.641560v1 (biorxiv, 2025).

Where two headings read alike, the source gives them in different places.

Experiment [1] concerns Td2F2. The note with it: 10 mM HEPES pH 7.4; Mutant A.
Experiment [2] relates to Td2F2. The experiment is described as follows: fluorescence plate reader, Michaelis-Menten fit. The experiment is classed as biochemical, uncultured bacterium. The note with it: 10 mM HEPES pH 7.4.
A further experiment has as its target β-galactosidase (LacZ) (Escherichia coli, UniProt P00722). The experiment can be described thus: fluorescence plate reader, Michaelis-Menten fit. It counts as biochemical. The note with it: 10 mM HEPES pH 7.4.

Sequence of β-galactosidase (LacZ) (P00722 2-1024): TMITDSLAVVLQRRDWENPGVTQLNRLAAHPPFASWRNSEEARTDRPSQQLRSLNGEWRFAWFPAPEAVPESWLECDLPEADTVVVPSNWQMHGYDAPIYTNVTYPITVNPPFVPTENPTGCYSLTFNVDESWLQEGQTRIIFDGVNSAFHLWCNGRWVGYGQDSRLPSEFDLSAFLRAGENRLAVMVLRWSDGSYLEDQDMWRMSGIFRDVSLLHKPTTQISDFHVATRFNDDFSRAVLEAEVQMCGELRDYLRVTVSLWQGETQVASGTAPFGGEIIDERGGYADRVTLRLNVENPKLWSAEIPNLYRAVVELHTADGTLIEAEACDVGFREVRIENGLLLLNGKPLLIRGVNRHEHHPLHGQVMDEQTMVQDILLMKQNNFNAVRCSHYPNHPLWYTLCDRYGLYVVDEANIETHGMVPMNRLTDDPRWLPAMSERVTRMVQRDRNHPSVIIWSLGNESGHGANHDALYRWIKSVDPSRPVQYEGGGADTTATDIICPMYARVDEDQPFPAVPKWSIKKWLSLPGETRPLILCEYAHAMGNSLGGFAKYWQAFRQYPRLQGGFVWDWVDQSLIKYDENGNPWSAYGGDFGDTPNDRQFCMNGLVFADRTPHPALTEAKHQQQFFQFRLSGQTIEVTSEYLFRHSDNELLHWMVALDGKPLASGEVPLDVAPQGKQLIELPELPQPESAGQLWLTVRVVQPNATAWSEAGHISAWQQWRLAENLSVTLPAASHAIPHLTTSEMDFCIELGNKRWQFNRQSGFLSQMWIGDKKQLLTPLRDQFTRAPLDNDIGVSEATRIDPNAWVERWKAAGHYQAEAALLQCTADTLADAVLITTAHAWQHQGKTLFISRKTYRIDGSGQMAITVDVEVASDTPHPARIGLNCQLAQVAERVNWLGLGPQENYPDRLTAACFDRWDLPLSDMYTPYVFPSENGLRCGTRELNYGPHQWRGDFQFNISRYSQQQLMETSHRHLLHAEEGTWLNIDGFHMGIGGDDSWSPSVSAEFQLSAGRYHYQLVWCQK

Take `C[C@H]1O[C@@H](Oc2ccc3c(c2)Oc2cc(NCC(F)(F)F)ccc2C32OCc3ccccc32)[C@H](O)[C@@H](O)[C@H]1O` (stereo partly drawn) [HMRef-β-D-Fuc, HMRef-β-D-fucose]: the Michaelis constant (Km) (usually the substrate concentration at which the rate is half of its maximum) in the experiment with Td2F2 [1] turned out to be 3.7 µM; in the experiment on Td2F2 [2], 190 µM.
`OC[C@H]1O[C@@H](Oc2ccc3c(c2)Oc2cc(NCC(F)(F)F)ccc2C32OCc3ccccc32)[C@H](O)[C@@H](O)[C@H]1O` (stereo partly drawn) [HMRef-β-D-Gal]: the Michaelis constant (Km) at β-galactosidase (LacZ) came out at 73 µM.
